Laboratory results: patent publication US8247569B2, “Cyclohexane derivative and pharmaceutical use thereof” (Toray Industries, Inc., priority 2008, dated 2012)
Like-named read-outs stand apart in the source and are kept apart here. Each block holds one molecule with its values, some of them ahead of it.

What was measured:
[1] = human liver microsomal stability assay; type: in vitro ADME; details: liver microsomes, pH 7.4, human liver microsomes 0.5 mg/mL, test compound 2 μmol/L, 37° C., 0-30 min
Protocol: (§1) A liver microsomal stability assay, which is known to be an in vitro assay for evaluation of the stability of a compound against hepatic metabolism, was carried out to evaluate the stability of Compound (I) against human and mouse hepatic metabolism.
(§2) A total of 4 times of experiments were carried out for the combinations of the compound of Example 2-B or the compound of Comparative Example 29 as the test compound and human liver microsomes (Xenotech) or mouse liver microsomes (Xenotech) as the liver microsomes.
The respective reagents to be used for the liver microsomal stability assay were prepared as follows. That is, an appropriate amount of D-glucose 6-phosphate disodium salt (hereinafter referred to as G6P) was dissolved in distilled water at 100 mmol/L, to prepare 100 mmol/L aqueous G6P solution. In 5 mL of distilled water, 1000 units of Glucose 6-phosphate dehydrogenase from Yeast (hereinafter referred to as G6PDH) was dissolved, to prepare 200 units/mL aqueous G6PDH solution. An appropriate amount of MgCl2 was dissolved in distilled water at 100 mmol/L, to prepare 100 mmol/L aqueous MgCl2 solution. To 500 mL of 200 mmol/L aqueous K2HPO4 solution, 200 mmol/L aqueous KH2PO4 solution (about 130 mL) was added, and pH was adjusted to 7.4, to prepare 200 mmol/L KH2PO4/K2HPO4 buffer pH7.4 (hereinafter referred to as 200 mmol/L PB). β-nicotinamide-adenine dinucleotide phosphate, reduced form, tetrasodium salt (hereinafter referred to as (NADPH) was dissolved in distilled water such that the NADPH content becomes 10 mmol/L based on the purity (Purity NADPH) in the assay data described in the attached document, to prepare 10 mmol/L aqueous NADPH solution.
The liver microsomal stability assay was carried out according to the following procedure. First, the reagents listed in Table 12 (excluding microsomes) were mixed together to prepare a reaction mixture, and the reaction mixture was aliquoted in 130 μL volumes to 4 wells (which play roles as the wells for the 0-minute reaction, well for the 30-minute reaction, well for the 20-minute reaction and well for the 10-minute reaction, respectively) in a 96-well tube plate (BM Equipment Co., Ltd; hereinafter referred to as plate). The entire plate was covered with a silicone cap, and the plate was subjected to preincubation by being soaked in a water bath at 37° C. for 10 minutes.
After the preincubation, 3.75 μL of 20 mg/mL microsome suspension+16.25 μL of distilled water (20 μL in total) were added to the well for the 30-minute reaction, and the plate was covered with the cap, followed by soaking the plate in a water bath at 37° C. to initiate the reaction.
Ten minutes after the beginning of the reaction, 3.75 μL of 20 mg/mL microsome suspension+16.25 μL of distilled water (20 μL in total) were added to the well for the 20-minute reaction, and 20 minutes after the beginning of the reaction, 3.75 μL of 20 mg/mL microsome suspension+16.25 μL of distilled water (20 μL in total) were added to the well for the 10-minute reaction. The reaction was further continued by keeping the plate soaked in the water bath at 37° C.
Thirty minutes after the beginning of the reaction, the plate was removed from the water bath, and 120 μL of acetonitrile was added to each well, followed by covering the plate with the cap, stirring the plate for 10 seconds with Direct Mixer, and stopping the reaction by 10 minutes of ice cooling. After the reaction was stopped, 3.75 μL of 20 mg/mL microsome suspension+16.25 μL of distilled water (20 μL in total) were added to the well for the 0-minute reaction.
The reaction liquid in each well was centrifuged at 4° C. at 2500 rpm for 10 minutes, and the supernatant was transferred to a glass-coated microplate (TOMSIC Plate+) to begin LC/MS/MS analysis. The conditions for the LC/MS/MS analysis were as follows: […]

[2] = mouse liver microsomal stability assay; type: in vitro ADME; details: pH 7.4; mouse liver microsomes 0.5 mg/mL; test compound 2 μmol/L; 37° C., 0-30 min; read-out: Hepatic intrinsic clearance, Mouse
Protocol: as §1, §2
The respective reagents to be used for the liver microsomal stability assay were prepared as follows. That is, an appropriate amount of D-glucose 6-phosphate disodium salt (hereinafter referred to as G6P) was dissolved in distilled water at 100 mmol/L, to prepare 100 mmol/L aqueous G6P solution. In 5 mL of distilled water, 1000 units of Glucose 6-phosphate dehydrogenase from Yeast (hereinafter referred to as G6PDH) was dissolved, to prepare 200 units/mL aqueous G6PDH solution. An appropriate amount of MgCl2 was dissolved in distilled water at 100 mmol/L, to prepare 100 mmol/L aqueous MgCl2 solution. […]

[3] = pharmacokinetics (PK) test in mice; type: in vivo; details: mouse, plasma, female CD1 (ICR) mice, fasted; for clearance: intravenous, read-out: total body clearance (converted); for bioavailability: oral vs intravenous administration, from dose-normalized AUC0-24 hr, read-out: bioavailability (BA)
Protocol: Example 2-B or Comparative Example 29 was orally administered to mice, and the plasma level after the administration was measured to study the influence of improvement of the metabolic stability in liver microsomes on the change in the plasma level of the compound.
Female CD1 (ICR) mice of 7 weeks old which had been fed ad libitum with pellets (Oriental Yeast Co., Ltd.) and tap water were fasted for 17 hours before the administration. Feeding to the mice was begun again 4 hours after the administration.
In the case of intravenous administration of the solution, the animal was fixed in a holder, and the administration was carried out from the tail vein without anesthesia, using a syringe with an injection needle (25 G) attached thereto. In the case of oral administration, a syringe with a feeding needle attached thereto was used without anesthesia to force the solution into the stomach.
In terms of the mice to which the solution was intravenously administered, blood was collected a total of 8 times from the jugular vein or heart 5, 15 and 30 minutes and 1, 2, 4, 8 and 24 hours after the intravenous administration. In terms of the mice to which the solution was orally administered, blood was collected a total of 8 times from the jugular vein or heart 15, 30 and 45 minutes and 1, 2, 4, 8 and 24 hours after the oral administration. Further, from the jugular vein or heart of mice to which the solution was not administered, blood was collected as a blank. The collected blood was centrifuged at 4° C. at 12000 rpm for 5 minutes, and the obtained mouse plasma and blank plasma were stored at about −20° C. until preparation of samples for analysis. […]
From the results of the LC/MS/MS analysis, a calibration curve was prepared using Analysis 1.4 (Applied Biosystems). Based on the LC/MS/MS analysis and the prepared calibration curve, the concentration in each measurement sample was calculated using Analysis 1.4. For 3 times each of the experiments by intravenous administration and oral administration, the mean plasma level at each time point was calculated, and PK analysis was carried out using the obtained values (FIG. 6 and FIG. 7; each plot indicates the mean plasma level at each time point and its ±standard deviation; i.v. indicates test data by intravenous administration; and p.o. indicates test data by oral administration). The PK parameter was calculated using WinNonlin (Pharsight) by analysis independent of the models (intravenous administration: Model 201, oral administration: Model 200). Further, the bioavailability (BA) was calculated by normalization by dividing AUC0-24 hr from the time point of the intravenous administration or oral administration to the time point of the final blood collection by the dose.

[4] = evaluation of safety using mice, 5-day repeated oral administration; type: in vivo; details: for no-observed-adverse-effect-level: Crlj:CD1 (ICR) mice, repeated oral administration for 5 days, assumed value
Protocol: Crlj:CD1 (ICR) mice of 7 weeks old were subjected to repeated oral administration of Example 2-B or Comparative Example 29 for 5 days, and observation of clinical sign, measurement of body weight, hematology, blood chemistry, gross autopsy, measurement of organ weight and histopathology were carried out. Further, on Day 1 and Day 5 after the administration, TK measurement was carried out. Exposure to the respective compounds was confirmed.
The doses of Example 2-B were 0, 40, 200 and 1000 mg/kg/day, and those of Comparative Example 29 were 0, 30, 100 and 300 mg/kg/day. The solution to be administered was prepared using 0.5% aqueous methyl cellulose solution as a vehicle, such that the administration volume becomes 10 mL/kg.

[5] = tested on: mouse sciatic nerve-ligation model (Seltzer model); assay: mouse partial sciatic nerve ligation model (Seltzer model), von Frey test; details: for von Frey total score compared to the vehicle group: 1 hour after oral administration, doses as in Table 11; for Score improvement rate: 1 hour after administration; for von Frey Total Score Observed 1 Hour after Oral Administration (mean ± standard error), Compound-administered group: n = 5 to 6
[6] = tested on: mouse acetic acid writhing model; assay: mouse acetic acid writhing model (nociceptive pain); type: in vivo; details: male ddY mice, oral administration 45 min before 0.6% acetic acid i.p., dose suppressing 50% of writhing responses vs vehicle group, vehicle A or B
[7] = read-out: Human hepatic intrinsic clearance

Compound: COc1ccc(-n2nc(C3(O)CCN(C(=O)N(C)O)CC3)c(F)c2-c2ccc(C)cc2)cc1 [Comparative Example 29, 4-(4-Fluoro-1-(4-methoxyphenyl)-5-(4-tolyl)-1H-pyrazol-3-yl)-1-(N-hydroxy-N-methylcarbamoyl)-4-piperidinol, reference compound]
microsomal CLint at 2 μmol/L ([1]; read-out: Hepatic intrinsic clearance, Human): 110 µL/min/mg | microsomal CLint at 2 μmol/L [2]: 267 µL/min/mg | clearance [3]: 94.5 mL/min/kg | bioavailability [3]: 54% | no-observed-adverse-effect-level [4]: less than 30 mg/kg/day | analgesic effect 3 hours after the oral administration (von Frey test) ([5]; positive controls, gabapentin 30 mg/kg oral, dose of Comparative Example 29 not given): drastically decreased | time of strongest analgesic effect after oral administration (von Frey test) ([5]; positive controls, gabapentin 30 mg/kg oral, dose of Comparative Example 29 not given, FIGS. 1 to 4): 1 h

Compound: COc1ccc(-n2nc(C3(O)CCC(O)CC3)cc2-c2ccc(C)cc2)cc1 (stereo not drawn) [Example 2-B, 1-(1-(4-methoxyphenyl)-5-(p-tolyl)-1H-pyrazol-3-yl)cyclohexane-cis-1,4-diol]
ED50 [6]: 1.40 mg/kg | clearance [3]: 16.2 mL/min/kg | bioavailability [3]: 88% | no-observed-adverse-effect-level [4]: 200 mg/kg/day | toxicity findings ([4]; mouse, in vivo, po, 1000 mg/kg/day): possibilities of induction of hepatotoxicity, effects on immune organs/tissues and induction of gastrointestinal toxicity were suggested

microsomal CLint at 2 μmol/L [1, 7]: 44.6 µL/min/mg
Compound: COc1ccc(-n2nc(C3(O)CCC(O)CC3)c(Cl)c2-c2ccc(C)cc2)cc1 (stereo not drawn) [Example 59, 1-(4-Chloro-1-(4-methoxyphenyl)-5-(p-tolyl)-1H-pyrazol-3-yl)cyclohexan-cis-1,4-diol]
ED50 ([6]; Mus musculus, read-out: ED50): 9.92 mg/kg | von Frey total score compared to the vehicle group [5]: significantly improved | Score improvement rate ([5]; dose 10 mg/kg oral, vehicle A): 66% | von Frey Total Score Observed 1 Hour after Oral Administration (mean ± standard error), Compound-administered group ([5]; dose 10 mg/kg oral, […]): 1.7 ± 0.6

microsomal CLint at 2 μmol/L [1, 7]: 33.3 µL/min/mg
Compound: COc1ccc(-n2nc(C3(O)CCC(O)(C(F)(F)F)CC3)cc2-c2ccc(C)cc2)cc1 (stereo not drawn) [Example 62, 1-(1-(4-Methoxyphenyl)-5-(p-tolyl)-1H-pyrazol-3-yl)-4-(trifluoromethyl)cyclohexan-cis-1,4-diol]
ED50 ([6]; Mus musculus, read-out: ED50): 0.54 mg/kg | analgesic effect 3 hours after the oral administration (von Frey test) ([5]; oral administration of Example 2-B and Example 62 in amounts of 0.3 and 1.0 mg/kg, respectively, FIG. 2, FIG. 3): a strong analgesic effect was maintained

microsomal CLint at 2 μmol/L [1, 7]: 2.06 µL/min/mg
Compound: COc1ccc(-n2nc(C3(O)CCC(C(=O)O)CC3)cc2-c2ccc(C)cc2)cc1 (stereo not drawn) [Example 64, 4-hydroxy-4-(1-(4-methoxyphenyl)-5-p-tolyl-1H-pyrazol-3-yl)-cis-cyclohexanecarboxylic acid]
ED50 ([6]; Mus musculus, read-out: ED50): 1.19 mg/kg | von Frey total score compared to the vehicle group [5]: significantly improved | Score improvement rate ([5]; dose 1 mg/kg oral, vehicle C): 57% | von Frey Total Score Observed 1 Hour after Oral Administration (mean ± standard error), Compound-administered group ([5]; dose 1 mg/kg oral, vehicle C (0.5% methyl cellulose, suspension)): 2.3 ± 0.5
